# Laboratory results from publication PMC9019904, “AD Informer Set: Chemical tools to facilitate Alzheimer's disease drug discovery” (Alzheimer's & Dementia : Translational Research & Clinical …, 2022).
# Read-outs that look alike come from different tables or passages of the source.
# Columns and labels:
# [1] = system: BV2 (mouse microglia) cell line; test: pHrodo-myelin phagocytosis/cell viability high content imaging assay: phagocytosis signal; assay type: cell-based
# Outline: (§1)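 Imaging at high content captured pHrodo-myelin uptake about 22 hours after its addition, alongside a viability read-out from the same cells. Three measurements were derived, with intensity increase marking early apoptosis and decrease marking later apoptosis.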
# [2] = system: protein product expressed by the gene target; settings: cited from earlier work
# cellular system = settings: cited from earlier work
# physchem = settings: pH 7.4, aqueous buffer, kinetic from dmso stock
# [3] = system: BV2 (mouse microglia) cell line; test: pHrodo-myelin phagocytosis/cell viability high content imaging assay: viability (cell count, nuclear area, nuclear intensity); settings: for 1. Cell count (% control) / 2. Nuclear Area (% Control) / 3. Nuclear DNA Intensity (% control): 48 hours treatment
# Outline: (§2)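 Viability was read by high-content imaging as cell count per well and nuclear intensity per cell, in murine BV2 and human HMC3 microglial lines. Cells received a single 10 μM compound dose for 48 h, including 20 h with pHrodo-myelin. Duplicate means are expressed as % of untreated control.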
# [4] = system: HMC3 (human microglia) cell line; test: as above; settings: for 1. Cell count (% control) / 2. Nuclear Area (% Control) / 3. Nuclear DNA Intensity (% control): 48 hours treatment
# Outline: as §2
# [5] = system: HMC3 (human microglia) cell line; test: pHrodo-myelin phagocytosis/cell viability high content imaging assay: phagocytosis signal; assay type: cell-based
# Outline: as §1
# [6] = Kinetic solubility in aqueous buffer pH 7.4 by total chemiluminescent nitrogen determination (Analiza); settings: aqueous buffer, pH 7.4, aqueous buffer, kinetic from dmso stock
smiles,measurement,setting,value
CN(C)CC1CCOC1(c1ccccc1)c1ccccc1.Cl (stereo not shown) [AN2/AVex-73 HCl (Blarcamesine)],Stimulation of mouse microglial phagocytosis at 10 μM (>150% control),"[1]; BV2 cells, 10 μM",Y (The compound was found to stimulate phagocytosis (response threshold: >150% control) when murine immortalized microglial cells were dosed at 10 μM (Y: yes))
same,Reported on-target biochemical potency (nM),"[2]; SIG-1R (genes listed: SIG-1R and CHRM2), ref PubMed 20829307, 29127580",SIG-1R = 860 nM
same,Reported as cell active (<10 μM),cellular system; published cellular activity at 10 μM,Y (Published data supports that the compound is active in a cellular system when dosed at 10 μM (Y/N))
same,solubility kinetic,physchem,174 µM
CC(C)CCOc1ccc(N)cc1 [CP-24879],Reported on-target biochemical potency,"[2]; gene target FADS1 and FADS2, ref PubMed 11939906, 27832159, 9605428",3400 nM
same,solubility kinetic,physchem,56.8 µM
CN(C)CCCN1c2ccccc2Sc2ccc(Cl)cc21 [Chlorpromazine],Reported on-target biochemical potency,[2],>1000 nM
same,Reported as cell active (<10 μM),cellular system,N
same,solubility kinetic,physchem,102 µM
Clc1ccccc1C(c1ccccc1)(c1ccccc1)n1ccnc1 [Clotrimazole],Mouse microglial cytotoxicity at 10 μM (<70% control),"[3]; BV2, 10 μM",Y (The compound was found to be cytotoxic (cell count threshold: <70% control) when murine immortalized microglial cells were dosed at 10 μM (Y: yes))
same,Reported on-target biochemical potency,"[2]; gene target CYP19A1, ref Probe Miner",1.8 nM
same,solubility kinetic,physchem,4.2 µM
CCc1cnn2c(NCc3ccc[n+]([O-])c3)cc(N3CCCC[C@H]3CCO)nc12 [Dinaciclib],Mouse microglial cytotoxicity at 10 μM (<70% control),"[3]; BV2, 10 μM",Y (The compound was found to be cytotoxic (cell count threshold: <70% control) when murine immortalized microglial cells were dosed at 10 μM (Y: yes))
same,Human microglial cytotoxicity at 10 μM (<70% control),"[4]; HMC3, 10 μM",Y (The compound was found to be cytotoxic (cell count threshold: <70% control) when human immortalized microglial cells were dosed at 10 μM (Y: yes))
same,Inhibition of mouse microglial phagocytosis at 10 μM (<70% control),"[1]; BV2, 10 μM",Y (The compound was found to inhibit phagocytosis (response threshold: <70% control) when murine immortalized microglial cells were dosed at 10 μM (Y: yes))
same,Stimulation of human microglial phagocytosis at 10 μM (>150% control),"[5]; HMC3, 10 μM",Y (The compound was found to stimulate phagocytosis (response threshold: >150% control) when human immortalized microglial cells were dosed at 10 μM (Y: yes))
same,Reported on-target biochemical potency,"[2]; gene target CDK9, ref PubMed 20663931, 25289887, 21768779",4 nM
same,solubility kinetic,physchem,143 µM
Cl.NCCOCCOCCNC(=O)Cc1ccc(Nc2nc(NCc3ccc(F)cc3)nc(NCC3CCCCC3)n2)cc1 [ENOblock (AP-III-a4)],Mouse microglial cytotoxicity at 10 μM (<70% control),"[3]; BV2, 10 μM",Y (The compound was found to be cytotoxic (cell count threshold: <70% control) when murine immortalized microglial cells were dosed at 10 μM (Y: yes))
same,Stimulation of mouse microglial phagocytosis at 10 μM (>150% control),"[1]; BV2, 10 μM",Y (The compound was found to stimulate phagocytosis (response threshold: >150% control) when murine immortalized microglial cells were dosed at 10 μM (Y: yes))
same,Inhibition of human microglial phagocytosis at 10 μM (<70% control),"[5]; HMC3, 10 μM",Y (The compound was found to inhibit phagocytosis (response threshold: <70% control) when human immortalized microglial cells were dosed at 10 μM (Y: yes))
same,Reported on-target biochemical potency,"[2]; gene target ENO1, ref Probe Miner, PubMed 30679508, 28272459",576 nM
same,solubility kinetic,physchem,76.8 µM
CNC(=O)[C@H](Cc1c[nH]c2ccccc12)NC(=O)[C@@H](CC(=O)NO)CC(C)C [Ilomastat],Reported on-target biochemical potency,"[2]; target gene MMP17, ref Probe Miner, PubMed 33513143",3.4 nM
same,solubility kinetic,physchem,104 µM
CC(=O)N1CCN(c2ccc(OCC3COC(Cn4ccnc4)(c4ccc(Cl)cc4Cl)O3)cc2)CC1 (stereo not shown) [Ketoconazole],Stimulation of mouse microglial phagocytosis at 10 μM (>150% control),"[1]; BV2, 10 μM",Y (The compound was found to stimulate phagocytosis (response threshold: >150% control) when murine immortalized microglial cells were dosed at 10 μM (Y: yes))
same,Reported on-target biochemical potency,[2],64000 nM
same,Reported as cell active (<10 μM),cellular system,Y (key: Published data supports that the compound is active in a cellular system when dosed at 10 μM (Y/N); Published data supports that the compound is active in a cellular system when dosed at 10 μM (Y/N))
same,solubility kinetic,[6],120 µM
COCC(=O)O[C@]1(CCN(C)CCCc2nc3ccccc3[nH]2)CCc2cc(F)ccc2[C@@H]1C(C)C [Mibefradil],Mouse microglial cytotoxicity at 10 μM (<70% control),"[3]; BV2 cells, 10 μM, cell count <70% control",Y (The compound was found to be cytotoxic (cell count threshold: <70% control) when murine immortalized microglial cells were dosed at 10 μM (Y: yes))
same,Inhibition of mouse microglial phagocytosis at 10 μM (<70% control),"[1]; BV2 cells, 10 μM",Y (The compound was found to inhibit phagocytosis (response threshold: <70% control) when murine immortalized microglial cells were dosed at 10 μM (Y: yes))
same,Inhibition of human microglial phagocytosis at 10 μM (<70% control),"[5]; HMC3 cells, 10 μM",Y (The compound was found to inhibit phagocytosis (response threshold: <70% control) when human immortalized microglial cells were dosed at 10 μM (Y: yes))
same,Reported on-target biochemical potency,[2],980 nM
same,Reported as cell active (<10 μM),cellular system,Y (key: Published data supports that the compound is active in a cellular system when dosed at 10 μM (Y/N); Published data supports that the compound is active in a cellular system when dosed at 10 μM (Y/N))
same,solubility kinetic,[6],128 µM
CCN(C)C(=O)Oc1cccc([C@H](C)N(C)C)c1 [Rivastigmine],Stimulation of mouse microglial phagocytosis at 10 μM (>150% control),"[1]; BV2, 10 μM",Y (The compound was found to stimulate phagocytosis (response threshold: >150% control) when murine immortalized microglial cells were dosed at 10 μM (Y: yes))
same,Reported on-target biochemical potency (nM): BChE,"[2]; gene target BCHE, ref PubMed 23469045, 12166941",37 nM
same,solubility kinetic,physchem,160 µM
COc1ccc2[nH]c([S+]([O-])Cc3ncc(C)c(OC)c3C)nc2n1 (stereo not shown) [Tenatoprazole],Reported on-target biochemical potency,"[2]; gene target DHTKD1, ref PubMed 32633484",2700 nM
same,solubility kinetic,physchem,131 µM
CN1CCN(CCCN2c3ccccc3Sc3ccc(C(F)(F)F)cc32)CC1 [Trifluoperazine],Mouse microglial cytotoxicity at 10 μM (<70% control),"[3]; 10 μM, BV2",Y (The compound was found to be cytotoxic (cell count threshold: <70% control) when murine immortalized microglial cells were dosed at 10 μM (Y: yes))
same,Inhibition of human microglial phagocytosis at 10 μM (<70% control),"[5]; 10 μM, HMC3",Y (The compound was found to inhibit phagocytosis (response threshold: <70% control) when human immortalized microglial cells were dosed at 10 μM (Y: yes))
same,Reported on-target biochemical potency,[2],5200 nM
same,Reported as cell active (<10 μM),cellular system,Y (key: Published data supports that the compound is active in a cellular system when dosed at 10 μM (Y/N); Published data supports that the compound is active in a cellular system when dosed at 10 μM (Y/N))
"CCCCNc1ncc2c(-c3ccc(CN4CCN(C)CC4)cc3)cn([C@H]3CC[C@H](O)CC3)c2n1 [UNC2025C, reference compound]",Mouse microglial cytotoxicity at 10 μM (<70% control),"[3]; 10 μM, BV2",Y (The compound was found to be cytotoxic (cell count threshold: <70% control) when murine immortalized microglial cells were dosed at 10 μM (Y: yes))
same,1. Cell count (% control),"[3]; BV2 cells, 10 uM compound",17.3 % control
same,2. Nuclear Area (% Control),"[3]; BV2 cells, 10 uM compound",101.1 % Control
same,3. Nuclear DNA Intensity (% control),"[3]; BV2 cells, 10 uM compound",19.1 % control
same,Human microglial cytotoxicity at 10 μM (<70% control),"[4]; 10 μM, HMC3",Y (The compound was found to be cytotoxic (cell count threshold: <70% control) when human immortalized microglial cells were dosed at 10 μM (Y: yes))
same,1. Cell count (% control),"[4]; HMC3 cells, 10 uM compound",38.6 % control
same,2. Nuclear Area (% Control),"[4]; HMC3 cells, 10 uM compound",85.2 % Control
same,3. Nuclear DNA Intensity (% control),"[4]; HMC3 cells, 10 uM compound",178.5 % control
same,Inhibition of mouse microglial phagocytosis at 10 μM (<70% control),"[1]; 10 μM, BV2",Y (The compound was found to inhibit phagocytosis (response threshold: <70% control) when murine immortalized microglial cells were dosed at 10 μM (Y: yes))
same,"phagocytosis in mouse microglial cells (< 70% control inhibition, > 150% control stimulation)","[1]; BV2, 10 μM, pHrodo-myelin",inhibited
same,4. Phagocytosis (% control),"[1]; BV2 cells, 10 uM compound, 48 hours treatment, pHrodo-myelin final 20 hours",0.168 % control
same,Inhibition of human microglial phagocytosis at 10 μM (<70% control),"[5]; 10 μM, HMC3",Y (The compound was found to inhibit phagocytosis (response threshold: <70% control) when human immortalized microglial cells were dosed at 10 μM (Y: yes))
same,"phagocytosis in human microglial cells (< 70% control inhibition, > 150% control stimulation)","[5]; HMC3, 10 μM, pHrodo-myelin",inhibited
same,4. Phagocytosis (% control),"[5]; HMC3 cells, 10 uM compound, 48 hours treatment, pHrodo-myelin final 20 hours",1.1 % control
same,Reported on-target biochemical potency,"[2]; target MERTK, ref PubMed 25068800, 27649555",0.74 nM
same,solubility kinetic,[6],43.4 µM
"O=C(Cn1cc(S(=O)(=O)N2CCCC2)ccc1=O)c1ccc(-c2cccc(C(F)(F)F)c2)cc1 [UNC8367A, reference compound]",Mouse microglial cytotoxicity at 10 μM (<70% control),"[3]; BV2, 10 μM",Y (The compound was found to be cytotoxic (cell count threshold: <70% control) when murine immortalized microglial cells were dosed at 10 μM (Y: yes))
same,1. Cell count (% control),"[3]; BV2, compound 10 uM",56.7 % control
same,2. Nuclear Area (% Control),"[3]; BV2, compound 10 uM",109.8 % Control
same,3. Nuclear DNA Intensity (% control),"[3]; BV2, compound 10 uM",118.7 % control
same,1. Cell count (% control),"[4]; HMC3, compound 10 uM",109.8 % control
same,2. Nuclear Area (% Control),"[4]; HMC3, compound 10 uM",95.2 % Control
same,3. Nuclear DNA Intensity (% control),"[4]; HMC3, compound 10 uM",108.6 % control
same,Stimulation of mouse microglial phagocytosis at 10 μM (>150% control),"[1]; BV2, 10 μM",Y (The compound was found to stimulate phagocytosis (response threshold: >150% control) when murine immortalized microglial cells were dosed at 10 μM (Y: yes))
same,4. Phagocytosis (% control),"[1]; BV2, compound 10 uM, pHrodo-myelin",408.0 % control
same,"phagocytosis in human microglial cells (< 70% control inhibition, > 150% control stimulation)","[5]; HMC3, 10 μM, pHrodo-myelin",stimulatory
same,4. Phagocytosis (% control),"[5]; HMC3, compound 10 uM, pHrodo-myelin",146.9 % control
same,Reported on-target biochemical potency,"[2]; gene target DOCK1, ref PubMed 28467910, 29432733",8400 nM
same,solubility kinetic,[6],6.5 µM
